From patent US20260085034A1, “N-(BENZHYDRYL)CYCLOALKYLCARBOXAMIDE DERIVATIVES AS INHIBITORS OF GLYCOGEN SYNTHASE 1 (GYS1) AND METHODS OF USE THEREOF” (Maze Therapeutics, Inc., priority 2022, published 2026)

Legend:
[1] = molecular target: T1, recombinant hGYS1/GN1 protein (Homo sapiens, UniProt P13807); assay: GYS1 coupled enzyme assay (PK/LDH); format: biochemical; conditions: geometric mean of at least 2 assay runs; NADH absorbance at 340 nm
T1 sequence (P13807 1-737): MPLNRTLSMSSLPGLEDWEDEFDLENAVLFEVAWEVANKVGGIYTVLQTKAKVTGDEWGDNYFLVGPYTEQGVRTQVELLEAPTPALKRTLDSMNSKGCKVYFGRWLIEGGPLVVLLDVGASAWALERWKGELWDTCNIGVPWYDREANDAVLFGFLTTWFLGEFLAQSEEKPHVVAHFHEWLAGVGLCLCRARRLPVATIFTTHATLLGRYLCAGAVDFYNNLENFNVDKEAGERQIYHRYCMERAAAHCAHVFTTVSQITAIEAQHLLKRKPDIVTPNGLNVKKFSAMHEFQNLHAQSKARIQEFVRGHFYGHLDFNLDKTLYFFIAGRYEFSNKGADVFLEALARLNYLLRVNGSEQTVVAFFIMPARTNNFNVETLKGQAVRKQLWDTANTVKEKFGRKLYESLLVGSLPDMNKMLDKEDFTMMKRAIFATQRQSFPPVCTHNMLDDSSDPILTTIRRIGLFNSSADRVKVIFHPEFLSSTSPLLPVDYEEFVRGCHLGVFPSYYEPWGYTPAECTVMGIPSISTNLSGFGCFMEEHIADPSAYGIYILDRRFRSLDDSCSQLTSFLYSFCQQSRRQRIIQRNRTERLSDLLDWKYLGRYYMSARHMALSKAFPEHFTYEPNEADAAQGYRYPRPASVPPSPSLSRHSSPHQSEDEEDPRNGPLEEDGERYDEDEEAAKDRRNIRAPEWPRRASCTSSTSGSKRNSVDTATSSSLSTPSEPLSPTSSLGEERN
T1 sequence (P46976 1-350 partner): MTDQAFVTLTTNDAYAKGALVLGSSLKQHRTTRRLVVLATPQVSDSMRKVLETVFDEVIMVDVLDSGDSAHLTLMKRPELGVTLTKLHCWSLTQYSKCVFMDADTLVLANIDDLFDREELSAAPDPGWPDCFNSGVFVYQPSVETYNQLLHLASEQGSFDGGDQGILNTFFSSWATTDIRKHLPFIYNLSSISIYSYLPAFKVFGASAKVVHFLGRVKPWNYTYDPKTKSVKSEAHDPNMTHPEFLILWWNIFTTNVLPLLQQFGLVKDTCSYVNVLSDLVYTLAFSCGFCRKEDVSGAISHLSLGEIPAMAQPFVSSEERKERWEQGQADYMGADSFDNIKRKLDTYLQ
Source text: (§1) The GYS1 coupled enzyme assay is a kinetic biochemical assay that indirectly quantifies the rate of glycogen synthesis by coupling the conversion of GYS1 substrate UDP-glucose into UDP with downstream enzymatic reactions. UDP is released from UDP-glucose as glucose monomers are linked into the growing glycogen strand by GYS1. The coupled assay then proceeds with pyruvate kinase utilizing UDP and phospho(enol)pyruvate (PEP) to form pyruvate. Lactate dehydrogenase then converts pyruvate and NADH into lactate and NAD+. Oxidation of NADH to NAD+ can be measured continuously with a plate reader by quantifying the decrease in NADH absorbance at 340 nm over time.
Compounds that inhibit the hGYS1 enzyme and, subsequently, the downstream conversion of NADH to NAD+, were tested using assay ready plates (black, clear bottom 384 well plates) in a final DMSO reaction volume of 2.5% DMSO. The Assay Buffer contained 50 mM Tris pH 7.5, 2 mM MgCl2, and 100 mM KCl. Fresh stocks of BSA at a final concentration of 0.02% and TCEP at 1 mM were added before splitting buffer into hGYS1 buffer and substrate buffer. To the hGYS1 buffer, rabbit liver glycogen was added at a final concentration of 0.2% glycogen. Glucose-6-Phosphate was added at 1 mM, recombinant hGYS1/GN1 protein was added at 50 nM to the substrate buffer, phosphoenolpyruvate (PEP) was added at 2 mM, UDP-Glucose was added at 0.8 mM, NADH) was added at 0.6 mM, and Pyruvate Kinase/Lactate Dehydrogenase was added at 20 units/mL. The reaction was initiated by mixing hGYS1 buffer and substrate buffer at a 1:1 ratio. Both buffers were plated using a liquid dispensing device with hGYS1 buffer plated first followed by the substrate buffer. Plates were spun briefly to eliminate air bubbles and are immediately read in continuous mode at an absorbance of 340 nm, for 10 time points in one-minute increments, for a total of 10 minutes. The slope from these 10 time points was normalized to the positive and negative control wells. The duplicate % inhibition values are then averaged and fit to a Hill equation for dose response according to the Levenberg-Marquardt algorithm with the Hill equation maximum set to 100 and the minimum set to 0.
The results are shown in Table 3 below, which reports the IC50 of each compound. Unless otherwise specified, IC50 values are reported as the geometric mean of at least 2 assay runs on separate days. Each run represents the average of a technical replicate, where each compound was assayed twice in the same plate. As shown in the table below, the compounds of the present invention are potent inhibitors of human GYS1.

[2] = molecular target: T2, recombinant hGYS2/GN1 protein (Homo sapiens, UniProt P54840); assay: GYS2 coupled enzyme assay (PK/LDH); format: biochemical; conditions: geometric mean of at least 2 assay runs; NADH absorbance at 340 nm
T2 sequence (P54840 1-703): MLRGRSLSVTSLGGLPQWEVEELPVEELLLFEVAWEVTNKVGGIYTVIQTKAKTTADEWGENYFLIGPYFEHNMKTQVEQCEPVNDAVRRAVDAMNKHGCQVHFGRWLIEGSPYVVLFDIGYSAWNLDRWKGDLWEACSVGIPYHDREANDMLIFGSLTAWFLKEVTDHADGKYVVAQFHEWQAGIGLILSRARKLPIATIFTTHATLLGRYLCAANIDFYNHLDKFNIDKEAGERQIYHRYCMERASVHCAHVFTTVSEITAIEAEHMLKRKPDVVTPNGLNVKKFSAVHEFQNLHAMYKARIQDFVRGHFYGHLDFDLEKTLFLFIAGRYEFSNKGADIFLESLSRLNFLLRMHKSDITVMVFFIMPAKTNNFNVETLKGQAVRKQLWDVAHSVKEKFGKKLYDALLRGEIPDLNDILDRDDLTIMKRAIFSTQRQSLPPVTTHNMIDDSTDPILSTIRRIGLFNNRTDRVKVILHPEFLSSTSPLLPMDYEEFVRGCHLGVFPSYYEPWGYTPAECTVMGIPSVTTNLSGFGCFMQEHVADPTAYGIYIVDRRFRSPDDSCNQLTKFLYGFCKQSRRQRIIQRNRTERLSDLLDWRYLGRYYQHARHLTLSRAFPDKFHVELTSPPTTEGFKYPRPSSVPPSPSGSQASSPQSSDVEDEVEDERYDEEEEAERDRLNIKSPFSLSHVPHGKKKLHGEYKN
T2 sequence (P46976 1-350 partner): T1 sequence (P46976 1-350 partner)
Source text: as §1, with “GYS2” for “GYS1”, “GYS2.” for “GYS1.”
Compounds that inhibit the hGYS2 enzyme and, subsequently, the downstream conversion of NADH to NAD+, were tested using assay ready plates (black, clear bottom 384 well plates) in a final DMSO reaction volume of 2.5% DMSO. The Assay Buffer contained 50 mM Tris pH 7.5, 2 mM MgCl2, and 100 mM KCl. Fresh stocks of BSA at a final concentration of 0.02% and TCEP 1 mM were added before splitting buffer into hGYS2 buffer and substrate buffer. To the hGYS2 buffer, rabbit liver glycogen was added at a final concentration of 0.2% glycogen. Glucose-6-Phosphate was added at 2 mM, recombinant hGYS2/GN1 protein was added at 200 nM to the substrate buffer, phosphoenolpyruvate (PEP) was added at 2 mM, UDP-Glucose was added at 2 mM, NADH was added at 0.6 mM, and Pyruvate Kinase/Lactate Dehydrogenase was added at 20 units/mL. The reaction was initiated by mixing hGYS2 buffer and substrate buffer at a 1:1 ratio. Both buffers were plated using a liquid dispensing device with hGYS2 buffer plated first followed by the substrate buffer. Plates were spun briefly to eliminate air bubbles and are immediately read in continuous mode at an absorbance of 340 nm, for 10 time points in one-minute increments, for a total of 10 minutes. The slope from these 10 time points was normalized to the positive and negative control wells. The duplicate % inhibition values are then averaged and fit to a Hill equation for dose response according to the Levenberg-Marquardt algorithm with the Hill equation maximum set to 100 and the minimum set to 0.
The results are shown in Table 5 below, which reports the IC50 of each compound. Unless otherwise specified, IC50 values are reported as the geometric mean of at least 2 assay runs on separate days. As shown in the table below, the compounds of the present invention are not potent inhibitors of human GYS2. […] Each run represents the average of a technical replicate, where each compound was assayed twice in the same plate.

IC50 [1]	IC50 [2]	SMILES
1060 nM	> 100000 nM	CC(=O)N1CC(C(=O)Nc2ccccc2[C@H](NC(=O)C2CC2)c2ccc(C(C)C)cc2)C1 [compound 37, (R)-1-acetyl-N-(2-(cyclopropanecarboxamido(4-isopropylphenyl)methyl)phenyl)azetidine-3-carboxamide]
194 nM	> 100000 nM	CC(C)c1ccc([C@@H](NC(=O)[C@H]2C[C@@H]2F)c2ccccc2NC(N)=O)cc1F (single isomer, unassigned) [compound 10]
346 nM	> 100000 nM	CC(C)c1ccc([C@@H](NC(=O)C2CC2)c2ccccc2NC(N)=O)cc1 [compound 54, (R)-N-((4-isopropylphenyl)(2-ureidophenyl)methyl)cyclopropanecarboxamide]
1420 nM	> 100000 nM	CC(=O)Nc1ccccc1[C@H](NC(=O)C1CC1)c1ccc(C(C)C)cn1 [compound 46, (S)-N-((2-acetamidophenyl)(5-isopropylpyridin-2-yl)methyl)cyclopropanecarboxamide]
735 nM	> 100000 nM	CC(C)c1ccc([C@@H](NC(=O)C2CC2)c2cccnc2N)cc1 (single isomer, unassigned) [compound 51]
304 nM	> 100000 nM	CC(C)c1ccc([C@@H](NC(=O)C2CC2)c2ccccc2N/C(N)=N/C#N)cc1 [compound 19, (R,E)-N-((2-(2-cyanoguanidino)phenyl)(4-isopropylphenyl)methyl)cyclopropanecarboxamide]
964 nM	> 100000 nM	NC(=O)Nc1ccccc1[C@H](NC(=O)C1CC1)c1ccc(C2CCC2)cc1 (single isomer, unassigned) [compound 18]
441 nM	> 100000 nM	CCC(=O)Nc1ccccc1[C@H](NC(=O)C1CC1)c1ccc(C(C)C)cc1 [compound 59, (R)-N-((4-isopropylphenyl)(2-propionamidophenyl)methyl)cyclopropanecarboxamide]
786 nM	> 100000 nM	COc1cccc([C@H](NC(=O)C2CC2)c2ccc(C(C)C)cc2)c1 [compound 70, (R)-N-((4-isopropylphenyl)(3-methoxyphenyl)methyl)cyclopropanecarboxamide]
372 nM	> 100000 nM	CC(C)c1ccc([C@@H](NC(=O)C2CC2)c2ccn[nH]2)cc1 [compound 56, (R)-N-((4-isopropylphenyl)(1H-pyrazol-5-yl)methyl)cyclopropanecarboxamide]
169 nM	> 100000 nM	CC(C)c1ccc([C@@H](NC(=O)C2CC2)c2cccc3[nH]c(=O)[nH]c23)cc1 (single isomer, unassigned) [compound 29]
2170 nM	> 100000 nM	CC(C)c1ccc([C@@H](NC(=O)C2CC2)c2ccccc2NS(C)(=O)=O)cc1 [compound 57, (R)-N-((4-isopropylphenyl)(2-(methylsulfonamido)phenyl)methyl)cyclopropanecarboxamide]
706 nM	> 100000 nM	CC(C)c1ccc([C@@H](NC(=O)C2CC2)c2ccccc2)cc1 [compound 73, (S)-N-((4-isopropylphenyl)(phenyl)methyl)cyclopropanecarboxamide]
502 nM	> 100000 nM	CNc1ccccc1[C@H](NC(=O)C1CC1)c1ccc(C(C)C)cc1 (single isomer, unassigned) [compound 39]
397 nM	> 100000 nM	COc1ccccc1[C@H](NC(=O)C1CC1)c1ccc(C(C)C)cc1 (single isomer, unassigned) [compound 71]
1280 nM	–	Cc1ccccc1[C@H](NC(=O)[C@@H]1CCC[C@@H]1C(=O)NC#N)c1ccc(C(C)C)cc1 [compound 22, (1S,2R)-N^1-cyano-N^2-((R)-(4-isopropylphenyl)(o-tolyl)methyl)cyclopentane-1,2-dicarboxamide]
1130 nM	–	CC(C)c1ccc([C@@H](NC(=O)[C@H]2CCC(O)C2)c2ccccc2)cc1 (stereo partly drawn) [compound 35, (1S)-3-hydroxy-N-((S)-(4-isopropylphenyl)(phenyl)methyl)cyclopentane-1-carboxamide]
